Legend:
Myzus persicae = experiment: Topical application bioassay on aphid clones: imidacloprid with or without synergist pre-treatment; conditions: aphid clone 5191A
Experimental: Aphid clones were reared on Chinese cabbage (Brassica rapa L. var. Pekinensis c.v Wong Bok) (Brassicaceae) leaves held in small plastic box-cages maintained at 18±2° C. with a 16:8 h light:dark photoperiod (Blackman R L, Variation in the photoperiodic response within natural populations of Myzus persicae (Sulzer). Bull Ent Res 60: 533-546 (1971)).
Clone 4106A is a laboratory insecticide-susceptible standard2 . […] Both aphid clones have been established from single parthenogenetic M. persicae females (Foster S P, Denholm I, Thompson R, Poppy G M, Powell W, Reduced response of insecticide-resistant aphids and attraction of parasitoids to alarm pheromone; a potential fitness trade-off. Bull Ent Res 95: 37-46 (2005)).
12.1.2 Topical Application Bioassay with 5191A Aphid Clone Young apterae were transferred to the abaxial surface of Chinese cabbage leaf discs (10 adults per leaf disc, at least 3 replicates per concentration) held on 1% agar in plastic containers (4 cm in diameter). The upper edge of each container was coated with Fluon (Whitford Plastics, UK) to prevent subsequent aphid escape from the leaf surface. After allowing 2 h for the aphids to settle, each was dosed with 0.25 μl of either 1 g L^−1 Compound of Example 3 dissolved in acetone or acetone only. After 4 h aphids were further treated with 0.25 μl imidacloprid in acetone (96% AR) using a
Burkard microapplicator (Burkard, Rickmansworth, UK). Controls were treated with acetone only. Treated aphids were stored at 18±2° C. and 16 h light: 8 h dark photoperiod. All bioassays were scored at the endpoint of 72 h after treatment. Adults incapable of co-ordinated movement (after gentle touching with a paint brush if necessary) were scored as dead. All bioassays were completed in triplicate.

[1] = molecular target: T1, purified resistance-associated esterase (E4) (Myzus persicae, UniProt P35501); experiment: Esterase interference assay (indirect determination of esterase inhibition); assay type: biochemical; conditions: for Esterase protection (%) after pre-incubation with compound: no esterase = 0%, uninhibited E4 = 100%
T1 construct: 5 g of aphids (stored at −20° C.) were homogenised in 0.02 M phosphate buffer pH 7.0; from tissue; host or cells: whole Myzus persicae aphids, clone 794JZ; homogenate purified over G-25 and DEAE Sepharose Fast Flow
T1 sequence (P35501 24-552): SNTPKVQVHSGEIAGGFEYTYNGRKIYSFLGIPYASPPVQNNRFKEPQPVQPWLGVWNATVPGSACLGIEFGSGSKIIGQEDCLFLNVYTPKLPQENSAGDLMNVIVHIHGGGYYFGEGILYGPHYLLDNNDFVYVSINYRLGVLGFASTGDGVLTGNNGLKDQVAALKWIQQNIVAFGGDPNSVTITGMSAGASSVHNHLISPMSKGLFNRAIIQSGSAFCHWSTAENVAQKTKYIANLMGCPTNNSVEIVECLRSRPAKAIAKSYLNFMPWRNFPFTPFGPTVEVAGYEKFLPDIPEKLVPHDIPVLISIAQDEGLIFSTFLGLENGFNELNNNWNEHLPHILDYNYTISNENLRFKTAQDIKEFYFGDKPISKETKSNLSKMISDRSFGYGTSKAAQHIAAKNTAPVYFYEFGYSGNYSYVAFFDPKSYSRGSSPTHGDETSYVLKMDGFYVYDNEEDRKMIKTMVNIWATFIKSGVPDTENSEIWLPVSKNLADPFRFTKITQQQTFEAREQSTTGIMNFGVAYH
From the text: Measuring the in vitro inhibition is not straight forward, as synergists may bind to a site other than the active site.
The esterase used was the well-characterised resistance associated esterase purified from M. persicae, E4, (aphid clone: 794JZ) as per Devonshire (1977) with some modifications(Devonshire A L, The properties of a carboxylesterase from the peach-potato aphid, Myzus persicae (Sulz.) and its role in conferring insecticide resistance. Biochem J 167: 675-683 (1977)). Briefly, 5 g of aphids (stored at −20° C.) were homogenised in 0.02 M phosphate buffer pH 7.0 and centrifuged at 20 000 g for 10 min. The supernatant was passed through a G-25 column using 0.02M Tris/HCl, pH 8.5 buffer. Unretarded fractions containing esterase activity were further chromatographed through DEAF Sepharose Fast Flow (Amersham Biosciences) and eluted with a linear 0-0.35 M NaCl gradient in 500 ml of Tris/HCl as above. Fractions containing carboxylesterase activity in the form of E4 were concentrated, desalted, and buffer exchanged to 0.02 M phosphate pH 7.0 for storage.
Interactions of the purified resistance-associated esterase (E4) with Compound of Example 2, Compound of Example 3, Compound of Example 4, Compound of Example 9 and Compound of Example 11 were performed using the ‘esterase interference assay’, as described by Khot et al., with some modifications. Devonshire A L, The properties of a carboxylesterase from the peach-potato aphid, Myzus persicae (Sulz.) and its role in conferring insecticide resistance. Biochem J 167: 675-683 (1977)). Briefly, stock solutions of novel synergists (3 mM in acetone) were pre-incubated with pure E4, to give a final concentration of 0.03 mM, for 16 h at 4° C. Aliquots (15 μl ) of E4, E4+Compound of Example 2, E4+Compound of Example 3, E4+Compound of Example 4, E4+Compound of Example 9 and E4+Compound of Example 11 were incubated for 1 h with 60 μl of serial dilutions of azamethiphos in 0.02M phosphate buffer, pH 7, in separate wells of a NUNC microplate. Aliquots (25 p1) of house fly head homogenate (source of AChE) were added to each well and incubated for 15 minutes at room temperature. E4 in acetone and buffer only served as the positive and the negative controls respectively. AChE activity was measured at 405 nm using a Tmax kinetic microplate reader (Molecular Devices, Menlo Park, Calif.). Readings were taken automatically for 10 min at 10 s intervals. The rate (mOD min^−1) was calculated by the integrated software, Softmax Pro 4.6. All treatments were performed in triplicate.
No added esterase is giving 0% esterase protection and uninhibited esterase (E4) is giving 100% protection.
The materials and procedure as stated in Example 13, paragraphs 13.1, 13.1.2, 13.1.2.1 and 13.1.2.2. have been used and the following results have been obtained: […]

Q: For `CC#CCOc1cc2c(cc1CCC)OCO2` [Example 3, 5-(but-2-ynyloxy)-6-propyl-benzo[1.3]dioxole], which “LC50 of imidacloprid after pre-treatment with the synergist” value (Myzus persicae; FE4(R3), 0.25 μl of 1 g L^−1 synergist 4 h before imidacloprid, scored 72 h) is on record?
A: Its value is 1.25 ppm.

Q: What about the “SF, synergism factor (LC50 unsynergised / LC50 synergised)” value (Myzus persicae; imidacloprid plus 1 g L^−1 synergist pre-treatment) of the same compound?
A: Its value is 72.4.

Q: What about the “Reduction of esterase protection, comparison in words” value ([1]; E4 esterase interference assay, Examples 13 and 16) of the same compound?
A: The value was “better activity than compounds 4, 7, respectively”.

Q: What about the “Esterase protection (%) after pre-incubation with compound” value ([1]; Table 2 (Example 13), 0.03 mM compound pre-incubated with E4 16 h at 4° C.) of the same compound?
A: Its value is 0.97%.

Q: What about the “Esterase protection (%) after pre-incubation with compound” value ([1]; second 'TABLE 3' (Example 16), procedure as Example 13) of the same compound?
A: Its value is 0.98%.
